Patent publication US10532986B2, “Cyclic compound acting as PDE4 inhibitor” (MEDSHINE DISCOVERY INC., priority 2016, dated 2020)

Target: T1, Recombinant human PDE4B (Homo sapiens, UniProt Q07343)
T1 construct: amino acid 305-end; GST (N); made in house; host or cells: Sf9 insect cells (baculovirus)
Assay: Inhibitory activity of the compounds against PDE 4B (fluorescence polarization, Transcreener AMP2/GMP2)
Format: biochemical
Conditions: recombinant human PDE4B (aa 305-end, GST tag); 1 μM cAMP; 1 hour at room temperature
Description: Inhibitory activity of the compounds against PDE 4B
The assay is based on the fluorescence polarization measuring AMP/GMP production as a result of the enzyme activity by displacement of Tracer binding to the AMP/GMP antibody.
10 mM Tris-HCl (pH 7.5), 5 mM MgCl2, 0.01% Brij 35, 1 mM DTT and 1% DMSO.
Recombinant human PDE4B (Gene accession number: NM_002600; amino acid 305-end) was expressed by baculovirus in Sf9 insect cells using an N-terminal GST tag. MW=78 kDa.
Transcreener® AMP^2/GMP^2 antibody and AMP^2/GMP^2 AlexaFluor 633 tracer
i) Recombinant human PDE4B and the enzyme substrate (1 μM cAMP) were dissolved in the newly-prepared buffer solution, respectively.
ii) The PDE4B buffer solution defined as above was transferred into the reaction wells.
iii) The compound which was dissolved in 100% DMSO was added to the reaction wells of the PDE4B buffer solution by Acoustic technology (Echo550; nanoliter range) and incubated at room temperature for 10 minutes.
iv) The enzymatic buffer solution was then added to the reaction wells defined as above to initiate the reaction.
v) The reaction was incubated at room temperature for 1 hour.
vi) The reaction was terminated by adding detecting mixture (Transcreener® AMP^2/GMP^2 antibody and AMP^2/GMP^2 AlexaFluor 633 tracer) and incubated for 90 minutes with gentle mixing. The measurement range of fluorescence polarization is Ex/Em=620/688.
The fluorescence polarization signal was converted into nM based on the AMP/GMP standard curve and the percent enzyme activity relative to DMSO calculated by Excel. GraphPad Prism was used to plot the curves (Drawing Medicine Icon)

T1 sequence (Q07343 305-736 limits assumed): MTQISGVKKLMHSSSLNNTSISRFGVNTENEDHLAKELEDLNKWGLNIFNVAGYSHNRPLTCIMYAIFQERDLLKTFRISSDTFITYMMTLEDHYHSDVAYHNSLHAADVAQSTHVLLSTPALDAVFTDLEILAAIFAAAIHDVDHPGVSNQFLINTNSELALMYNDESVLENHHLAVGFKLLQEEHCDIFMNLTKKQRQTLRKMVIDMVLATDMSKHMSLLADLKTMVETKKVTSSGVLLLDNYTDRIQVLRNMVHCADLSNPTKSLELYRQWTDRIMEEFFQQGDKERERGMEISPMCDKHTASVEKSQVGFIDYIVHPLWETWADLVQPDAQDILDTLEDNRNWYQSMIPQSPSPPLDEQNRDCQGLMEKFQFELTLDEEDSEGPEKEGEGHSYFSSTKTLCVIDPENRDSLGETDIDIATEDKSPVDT

Point of comparison: CCOc1cc([C@@H](CS(C)(=O)=O)n2c(=O)n(Cc3ccccc3F)c3cc(Br)ccc32)ccc1OC [WX064], IC50 0.91 nM. Against it:
- CCOc1cc([C@@H](CS(C)(=O)=O)n2c(=O)[nH]c3cc(F)cc(F)c32)ccc1OC [WX005] — 100-fold higher, 92.4 nM
- CCOc1cc([C@@H](CS(C)(=O)=O)n2c(=O)[nH]c3cc(C(=O)CC)ccc32)ccc1OC [WX035] — 9.1-fold higher, 8.3 nM
- CCOc1cc([C@@H](CS(C)(=O)=O)n2c(=O)n(C3CC3)c3cc(Cl)ccc32)ccc1OC [WX020] — 14-fold higher, 12.6 nM
- CCOc1cc([C@@H](CS(C)(=O)=O)n2c(=O)[nH]c3cc(-c4nccnc4N(C)C)ccc32)ccc1OC [WX029] — lower, < 0.5 nM
- CCOc1cc([C@@H](CS(C)(=O)=O)n2c(=O)n(CC#N)c3cc(C(F)(F)F)ccc32)ccc1OC [WX055] — 23-fold higher, 21.2 nM
- CCOc1cc([C@@H](CS(C)(=O)=O)n2c(=O)[nH]c3cc(-c4cccc(F)c4)ccc32)ccc1OC [WX012] — 2.4-fold higher, 2.18 nM
- CCOc1cc([C@@H](CS(C)(=O)=O)n2c(=O)n(CC(F)F)c3cc(Cl)ccc32)ccc1OC [WX036] — 10-fold higher, 9.12 nM
- CCOc1cc([C@@H](CS(C)(=O)=O)n2c(=O)n(Cc3cccc(F)c3)c3cc(Br)ccc32)ccc1OC [WX065] — 1.6-fold higher, 1.43 nM
- CCOc1cc([C@@H](CS(C)(=O)=O)n2c(=O)[nH]c3cc(C(=O)O)ccc32)ccc1OC [WX034] — 25-fold higher, 22.4 nM
- CCOc1cc([C@@H](CS(C)(=O)=O)n2c(=O)[nH]c3c(-c4cnn(C)c4)cccc32)ccc1OC [WX078] — within 1.5-fold, 0.822 nM
- CCOc1cc([C@@H](CS(C)(=O)=O)n2c(=O)[nH]c3cc(F)ccc32)ccc1OC [WX004] — 13-fold higher, 11.5 nM
- CCOc1cc([C@@H](CS(C)(=O)=O)n2c(=O)n(C3CC3)c3cc(C(F)(F)F)ccc32)ccc1OC [WX022] — 43-fold higher, 39.5 nM
- CCOc1cc([C@@H](CS(C)(=O)=O)n2c(=O)n(C3CC3)c3cc(F)ccc32)ccc1OC [WX021] — 71-fold higher, 64.4 nM
- CCOc1cc([C@@H](CS(C)(=O)=O)n2c(=O)n(C(C)C)c3cc(-c4ccccc4F)ccc32)ccc1OC [WX070] — within 1.5-fold, 1.25 nM
- CCOc1cc([C@@H](CS(C)(=O)=O)n2c(=O)n(CC3CCC3)c3cc(Cl)ccc32)ccc1OC [WX041] — 13-fold higher, 11.9 nM
- CCOc1cc([C@@H](CS(C)(=O)=O)n2c(=O)[nH]c3c(C4=CCOCC4)cccc32)ccc1OC [WX080] — within 1.5-fold, 1.03 nM
- CCOc1cc([C@@H](CS(C)(=O)=O)n2c(=O)[nH]c3c(-c4ccccc4C)cccc32)ccc1OC [WX083] — lower, < 0.5 nM
- CCOc1cc([C@@H](CS(C)(=O)=O)n2c(=O)[nH]c3c(C(C)C)cccc32)ccc1OC [WX079] — 2.8-fold higher, 2.53 nM
- CCOC(=O)c1ccc2c(c1)n(CC(F)F)c(=O)n2[C@H](CS(C)(=O)=O)c1ccc(OC)c(OCC)c1 [WX072] — 16-fold higher, 14.8 nM
- C=C(C)c1cccc2c1[nH]c(=O)n2[C@H](CS(C)(=O)=O)c1ccc(OC)c(OCC)c1 [WX092] — 2.4-fold higher, 2.15 nM
- CCOc1cc(C(CS(C)(=O)=O)n2c(=O)n(CCS(C)(=O)=O)c3cc(Br)ccc32)ccc1OC (stereo not shown) [WX063] — 23-fold higher, 20.8 nM
- CCOc1cc([C@@H](CS(C)(=O)=O)n2c(=O)[nH]c3c(-n4cccn4)cccc32)ccc1OC [WX084] — 20-fold higher, 18.1 nM
- CCOc1cc([C@@H](CS(C)(=O)=O)n2c(=O)n(C)c3cc(-c4ccccc4F)ccc32)ccc1OC [WX068] — within 1.5-fold, 0.707 nM
- CCOc1cc([C@@H](CS(C)(=O)=O)n2c(=O)[nH]c3cc(Br)cc(F)c32)ccc1OC [WX001] — 4-fold higher, 3.68 nM
- CCOc1cc([C@@H](CS(C)(=O)=O)n2c(=O)n(C(C)C)c3cc(Cl)ccc32)ccc1OC [WX044] — 5.6-fold higher, 5.12 nM
- CCOC(=O)c1ccc2c(c1)n(CC(F)(F)F)c(=O)n2[C@H](CS(C)(=O)=O)c1ccc(OC)c(OCC)c1 [WX073] — 35-fold higher, 31.8 nM
- CCOc1cc([C@@H](CS(C)(=O)=O)n2c(=O)[nH]c3cc(-c4ccccc4OC)ccc32)ccc1OC [WX016] — lower, < 0.5 nM
- CCOc1cc([C@@H](CS(C)(=O)=O)n2c(=O)[nH]c3c(-c4ccccc4OC)cccc32)ccc1OC [WX082] — lower, < 0.5 nM
- CCOc1cc([C@@H](CS(C)(=O)=O)n2c(=O)n(CC(F)F)c3cc(F)ccc32)ccc1OC [WX046] — 11-fold higher, 10.1 nM
- CCOc1cc([C@@H](CS(C)(=O)=O)n2c(=O)[nH]c3cc(C(=O)OCC(F)(F)F)ccc32)ccc1OC [WX033] — within 1.5-fold, 1.1 nM
